Legend:
[1] = target: T1, Dihydroorotate dehydrogenase (quinone), mitochondrial (Homo sapiens, UniProt Q02127); experiment: Inhibition of human N-terminal SUMO-tagged DHODH expressed in Escherichia coli BL21(DE3) at 100 nM using dihydroorotate as substrate by DCIP based microplate reader analysis relative to control
[2] = target: T1, Dihydroorotate dehydrogenase (quinone), mitochondrial; experiment: Inhibition of human N-terminal SUMO-tagged DHODH expressed in Escherichia coli BL21(DE3) at 1 uM using dihydroorotate as substrate by DCIP based microplate reader analysis relative to control
[3] = target: T1, Dihydroorotate dehydrogenase (quinone), mitochondrial; experiment: Inhibition of human N-terminal SUMO-tagged DHODH expressed in Escherichia coli BL21(DE3) using dihydroorotate substrate by DCIP based microplate reader analysis
Raji = experiment: Antiproliferative activity against human Raji cells assessed as cell growth inhibition measured after 96 hrs by MTT assay; assay type: functional, cell-based
[4] = Toxicity in BALB/c mouse xenografted with HCT-116 cells assessed as side effect at 30 mg/kg, po and measured at 18 day; assay type: organism-based; conditions: in vivo, 432 h
[5] = Hepatotoxicity in BALB/c mouse assessed as change in blood ALP level at 400 mg/kg, po measured after 14 days by biochemical assay; assay type: toxicity, organism-based; conditions: in vivo, 336 h, time 14 day
[6] = Acute toxicity in BALB/c mouse assessed as animal death at 400 mg/kg, po measured at 2 days; assay type: organism-based; conditions: in vivo, 48 h, time 2 day
[7] = Toxicity in BALB/c mouse assessed as histopathological changes in lungs at 400 mg/kg, po measured after 14 days by H and E staining analysis; assay type: organism-based; conditions: in vivo, 336 h, time 14 day
[8] = Renal toxicity in BALB/c mouse assessed as change in blood uric acid level at 400 mg/kg, po measured after 14 days by biochemical assay; assay type: organism-based; conditions: in vivo, 336 h, time 14 day
[9] = Toxicity in BALB/c mouse assessed as histopathological changes in liver at 400 mg/kg, po measured after 14 days by H and E staining analysis; assay type: organism-based; conditions: in vivo, 336 h, time 14 day
HCT-116 [10] = experiment: Antitumor activity against human HCT-116 cells xenografted in nude mouse assessed as tumor growth inhibition at 30 mg/kg, po; assay type: functional; conditions: read-out: TGI
[11] = Toxicity in BALB/c mouse assessed as histopathological changes in spleen at 400 mg/kg, po measured after 14 days by H and E staining analysis; assay type: organism-based; conditions: in vivo, 336 h, time 14 day
HCT-116 [12] = experiment: Antiproliferative activity against human HCT-116 cells expressing human DHODH assessed as reduction in cell viability measured after 96 hrs by MTT assay; assay type: functional, cell-based; conditions: HCT-116, 96 h
[13] = Toxicity in BALB/c mouse assessed as adverse effect at 400 mg/kg, po measured for 14 days; assay type: organism-based; conditions: in vivo, 336 h, time 14 day
[14] = Toxicity in BALB/c mouse assessed as histopathological changes in heart at 400 mg/kg, po measured after 14 days by H and E staining analysis; assay type: organism-based; conditions: in vivo, 336 h, time 14 day
[15] = Toxicity in BALB/c mouse xenografted with HCT-116 cells assessed as animal death at 30 mg/kg, po and measured at 18 day; assay type: organism-based; conditions: in vivo, 432 h
[16] = Toxicity in BALB/c mouse assessed as histopathological changes in kidney at 400 mg/kg, po measured after 14 days by H and E staining analysis; assay type: organism-based; conditions: in vivo, 336 h, time 14 day
[17] = Hepatotoxicity in BALB/c mouse assessed as change in blood AST level at 300 mg/kg, po measured after 14 days by biochemical assay; assay type: toxicity, organism-based; conditions: in vivo, 336 h, time 14 day
Kasumi 1 = experiment: Antiproliferative activity against human Kasumi 1 cells expressing human DHODH assessed as reduction in cell viability measured after 96 hrs by MTT assay; assay type: functional, cell-based; conditions: Kasumi 1, 96 h
[18] = Cytotoxicity against human HL7702 cells expressing human DHODH assessed as reduction in cell viability measured after 96 hrs by MTT assay; assay type: toxicity, cell-based; conditions: HL7702 (L02) cells expressing human DHODH
[19] = Cytotoxicity against human HCoEpiC cells expressing human DHODH assessed as reduction in cell viability measured after 96 hrs by MTT assay; assay type: toxicity, cell-based
SUD4 = experiment: Antiproliferative activity against human SU-DHL-4 cells expressing human DHODH assessed as reduction in cell viability measured after 96 hrs by MTT assay; assay type: functional, cell-based; conditions: SU-DHL-4, 96 h
U-937 = experiment: Antiproliferative activity against human U-937 cells expressing human DHODH assessed as reduction in cell viability measured after 96 hrs by MTT assay; assay type: functional, cell-based; conditions: U-937, 96 h
A-375 = experiment: Antiproliferative activity against human A375 cells expressing human DHODH assessed as reduction in cell viability measured after 96 hrs by MTT assay; assay type: functional, cell-based; conditions: A-375, 96 h
[20] = Hepatotoxicity in BALB/c mouse assessed as change in blood ALT level at 300 mg/kg, po measured after 14 days by biochemical assay; assay type: toxicity, organism-based; conditions: in vivo, 336 h, time 14 day
[21] = Hepatotoxicity in BALB/c mouse assessed as change in blood ALP level at 300 mg/kg, po measured after 14 days by biochemical assay; assay type: toxicity, organism-based; conditions: in vivo, 336 h, time 14 day
[22] = Acute toxicity in BALB/c mouse assessed as average body weight at 300 mg/kg, po measured after 14 days; assay type: organism-based; conditions: in vivo, 336 h, time 14 day
KG-1 = experiment: Antiproliferative activity against human KG-1 cells expressing human DHODH assessed as reduction in cell viability measured after 96 hrs by MTT assay; assay type: functional, cell-based; conditions: KG-1, 96 h
[23] = Renal toxicity in BALB/c mouse assessed as change in blood uric acid level at 300 mg/kg, po measured after 14 days by biochemical assay; assay type: organism-based; conditions: in vivo, 336 h, time 14 day
[24] = Acute toxicity in BALB/c mouse assessed as decrease in body weight at 300 mg/kg, po measured for 14 days; assay type: organism-based; conditions: in vivo, 336 h, time 14 day
[25] = Toxicity in BALB/c mouse assessed as animal death at 300 mg/kg, po measured for 14 days; assay type: organism-based; conditions: in vivo, 336 h, time 14 day

T1 sequence (Q02127 whole entry): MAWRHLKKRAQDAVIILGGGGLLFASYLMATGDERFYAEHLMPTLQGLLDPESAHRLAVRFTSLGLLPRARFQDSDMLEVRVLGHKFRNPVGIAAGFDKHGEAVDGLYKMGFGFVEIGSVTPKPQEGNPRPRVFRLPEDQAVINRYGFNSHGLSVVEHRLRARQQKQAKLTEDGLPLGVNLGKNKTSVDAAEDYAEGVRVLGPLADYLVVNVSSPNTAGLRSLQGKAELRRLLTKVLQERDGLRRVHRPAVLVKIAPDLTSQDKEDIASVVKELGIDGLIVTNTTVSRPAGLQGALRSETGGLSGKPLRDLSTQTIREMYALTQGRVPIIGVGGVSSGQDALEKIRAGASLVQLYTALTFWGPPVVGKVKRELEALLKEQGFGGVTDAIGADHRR

Structure (SMILES)	inhibition [1]	inhibition [2]	IC50 [3]	also measured
COc1cccc(-c2ccc(NC(=O)/C(C#N)=C(/C)O)cc2OC)c1	48.4%	89.2%	–	–
CCC(C)Oc1cc(NC(=O)/C(C#N)=C(/C)O)c(F)cc1-c1cccc(OC(F)(F)F)c1 (centres undefined)	92.4%	99.2%	10.9 nM	IC50 (Raji): 130 nM
CCC(C)Oc1cc(NC(=O)/C(C#N)=C(/C)O)c(F)cc1-c1ccc(OC)cc1 (centres undefined)	72.1%	94.7%	39.8 nM	–
CCC(C)Oc1cc(NC(=O)/C(C#N)=C(/C)O)c(F)cc1-c1cccc(F)c1C (centres undefined)	82.5%	97.8%	26.1 nM	–
C/C(O)=C(\C#N)C(=O)Nc1cc(OC(C)C)c(-c2cccc(C(F)(F)F)c2)cc1F	–	–	10.2 nM	Activity [4]: Non-Toxic; Activity [5]: Toxic; Activity [6]: Toxic; Activity [7]: Non-Toxic; Activity [8]: Toxic; Activity [9]: Non-Toxic; inhibition in vivo at 30 mg/kg (HCT-116 [10]): 54.4%; IC50 (Raji): 70.1 nM; Activity [11]: Non-Toxic; IC50 (HCT-116 [12]): 300 nM; Activity [13]: Non-Toxic; Activity [14]: Non-Toxic; Activity [15]: Non-Toxic; Activity [16]: Non-Toxic
CCC(C)Oc1cc(NC(=O)/C(C#N)=C(/C)O)c(F)cc1-c1ccccc1C (centres undefined)	78.6%	96.6%	31 nM	–
CCC(C)Oc1cc(NC(=O)/C(C#N)=C(/C)O)c(F)cc1-c1cccc2ccccc12 (centres undefined)	95%	99.7%	9.8 nM	IC50 (Raji): 215 nM
CCC(C)Oc1cc(NC(=O)/C(C#N)=C(/C)O)c(F)cc1-c1ccc(Cl)cc1 (centres undefined)	68.5%	95.4%	33.3 nM	–
CCCOc1cc(NC(=O)/C(C#N)=C(/C)O)c(F)cc1-c1cccc(OC)c1	68.2%	93.6%	34.6 nM	–
COc1cccc(-c2cc(F)c(NC(=O)/C(C#N)=C(/C)O)cc2OCC2CCCCC2)c1	64%	93.6%	43.1 nM	–
CCOc1cc(NC(=O)/C(C#N)=C(/C)O)c(F)cc1-c1cccc(OC)c1	65.2%	93.1%	41.4 nM	–
COc1cccc(-c2cc(F)c(Nc3ncccc3C(=O)O)c(F)c2)c1 [ASLAN-003]	–	–	–	IC50 (Raji): 270 nM
CCC(C)Oc1cc(NC(=O)/C(C#N)=C(/C)O)c(F)cc1-c1cccc(C(F)(F)F)c1 (centres undefined)	92.4%	99.3%	7.9 nM	Activity [17]: Toxic; IC50 (Kasumi 1): 500 nM; IC50 at 96 h [18]: > 10000 nM; IC50 at 96 h [19]: > 10000 nM; IC50 (SUD4): 300 nM; IC50 (U-937): 560 nM; IC50 (A-375): 500 nM; Activity [20]: Toxic; Activity [21]: Toxic; IC50 (Raji): 45.5 nM; IC50 (HCT-116 [12]): 270 nM; Activity [22]: 17.3 g; IC50 (KG-1): 990 nM; Activity [23]: Toxic
CCC(C)Oc1cc(NC(=O)/C(C#N)=C(/C)O)c(F)cc1-c1ccc(F)c(F)c1 (centres undefined)	80.1%	97.5%	30.4 nM	–
CCC(C)Oc1cc(NC(=O)/C(C#N)=C(/C)O)c(F)cc1-c1ccc(F)nc1 (centres undefined)	52.3%	89.7%	–	–
COc1cccc(-c2cc(F)c(NC(=O)/C(C#N)=C(/C)O)cc2OC)c1	57.7%	91.8%	52.1 nM	–
COc1cccc(-c2cc(F)c(NC(=O)/C(C#N)=C(/C)O)cc2OCc2ccccc2F)c1	48.3%	89.8%	–	–
C/C(O)=C(\C#N)C(=O)Nc1ccc(C(F)(F)F)cc1	–	71.2%	–	–
CCC(C)Oc1cc(NC(=O)/C(C#N)=C(/C)O)c(F)cc1-c1ccc2ccccc2c1 (centres undefined)	95.6%	99.8%	6.6 nM	Activity [24]: Toxic; IC50 (Kasumi 1): 130 nM; IC50 at 96 h [18]: 6480 nM; IC50 at 96 h [19]: 4710 nM; IC50 (SUD4): 160 nM; IC50 (U-937): 200 nM; IC50 (A-375): 270 nM; IC50 (Raji): 18.8 nM; IC50 (HCT-116 [12]): 150 nM; IC50 (KG-1): 620 nM; Activity [25]: Toxic
CCC(C)Oc1cc(NC(=O)/C(C#N)=C(/C)O)c(F)cc1-c1ccccc1 (centres undefined)	80.4%	96.9%	28.9 nM	–
CCC(C)Oc1cc(NC(=O)/C(C#N)=C(/C)O)c(F)cc1-c1ccc(C(F)(F)F)cc1 (centres undefined)	34.1%	77.2%	–	–
CCC(C)Oc1cc(NC(=O)/C(C#N)=C(/C)O)c(F)cc1-c1cc(Cl)ccc1C (centres undefined)	47.2%	85.5%	–	–

Continued, in another order:

inhibition [1]	inhibition [2]	IC50 [3]	Structure (SMILES)	also measured
82.9%	97.3%	27.3 nM	CCC(C)Oc1cc(NC(=O)/C(C#N)=C(/C)O)c(F)cc1-c1ccccc1F (centres undefined)	–
83.6%	97.2%	26.8 nM	CCC(C)Oc1cc(NC(=O)/C(C#N)=C(/C)O)c(F)cc1-c1cccc(F)c1 (centres undefined)	–
58.6%	92.9%	–	C=C(C)COc1cc(NC(=O)/C(C#N)=C(/C)O)c(F)cc1-c1cccc(OC)c1	–
58.5%	92.5%	–	C=CCOc1cc(NC(=O)/C(C#N)=C(/C)O)c(F)cc1-c1cccc(OC)c1	–
86.3%	98.8%	21.8 nM	CCC(C)Oc1cc(NC(=O)/C(C#N)=C(/C)O)c(F)cc1-c1ccccc1Cl (centres undefined)	–
77.6%	96.2%	30.1 nM	COc1cccc(-c2cc(F)c(NC(=O)/C(C#N)=C(/C)O)cc2OCC(C)C)c1	–
85.3%	98%	22.2 nM	CCC(C)Oc1cc(NC(=O)/C(C#N)=C(/C)O)c(F)cc1-c1cccc(Cl)c1C (centres undefined)	–
84.6%	98.1%	16.4 nM	CCC(CC)Oc1cc(NC(=O)/C(C#N)=C(/C)O)c(F)cc1-c1cccc(OC)c1	–
87.5%	98.9%	20.1 nM	CCC(C)Oc1cc(NC(=O)/C(C#N)=C(/C)O)c(F)cc1-c1cccc(Cl)c1 (centres undefined)	–
83.1%	96.9%	28.8 nM	CCC(C)Oc1cc(NC(=O)/C(C#N)=C(/C)O)c(F)cc1-c1ccc2c(c1)OCO2 (centres undefined)	–
87.7%	98.5%	20.3 nM	CCC(C)Oc1cc(NC(=O)/C(C#N)=C(/C)O)c(F)cc1-c1ccnc(F)c1 (centres undefined)	–
85.1%	98.8%	22.6 nM	CCC(C)Oc1cc(NC(=O)/C(C#N)=C(/C)O)c(F)cc1-c1cc(F)cc(F)c1 (centres undefined)	–
91.2%	99.2%	9.2 nM	CCC(C)Oc1cc(NC(=O)/C(C#N)=C(/C)O)c(F)cc1-c1cccc(OC)c1 (centres undefined)	IC50 (Raji): 610 nM
72.5%	96.1%	37.8 nM	CCC(C)Oc1cc(NC(=O)/C(C#N)=C(/C)O)c(F)cc1-c1ccc(F)cc1 (centres undefined)	–
87.7%	96.6%	13.9 nM	COc1cccc(-c2cc(F)c(NC(=O)/C(C#N)=C(/C)O)cc2OC(C)C)c1	IC50 (Raji): 980 nM
86.5%	98.4%	14.4 nM	CCCC(C)Oc1cc(NC(=O)/C(C#N)=C(/C)O)c(F)cc1-c1cccc(OC)c1 (centres undefined)	–
40.3%	79.7%	–	COc1cccc(-c2cc(F)c(NC(=O)/C(C#N)=C(/C)O)cc2OCc2c(F)cccc2Cl)c1	–
89.9%	97.4%	12.9 nM	CCC(C)Oc1cc(NC(=O)/C(C#N)=C(/C)O)c(F)cc1-c1cc2ccccc2o1 (centres undefined)	–

Reference: ChEMBL document CHEMBL5137035 (Eur J Med Chem, 2022)
